Results taken from publication PMC6360136 (Investigational new drugs, 2018).

What was measured:
EC68 cells = test: Cell viability assay; format: cell-based, human; conditions: EC68 primary pancreatic cancer cells, MTT, 48 h
PANC-1 cells = test: Cell viability assay; format: cell-based, human; conditions: PANC-1 cells, MTT, 48 h

CC[C@H](C)[C@@H]1C(=O)N2CCC[C@@H]2C(=O)O[C@H](C(C)(C)C)C[C@@H](C)C[C@@H](O)C(C)(C)C2=N[C@H](CCC(=O)N[C@@H](Cc3ccc(OC)cc3)C(=O)N(C)[C@@H](C)C(=O)N1C)CS2 [Apra S10, apratoxin S10]
GI50 (EC68 cells): 0.35 nM | GI50 (PANC-1 cells): 2.75 nM
